Data on 17 compounds can be found in patent US10646494B2, “Heterocycle-substituted tetracyclic compounds and methods of use thereof for the treatment of viral diseases” (Merck Sharp & Dohme Corp., priority 2016, dated 2020).

Broadly, the EC50 is the concentration needed to bring the measured effect to its halfway point.

Holding throughout (parameters): species or system Hepatitis C virus (HCV)
The subject of one assay is HCV replicon 1B. The assay is described as follows: Cell-based HCV replicon assay (Replicon Assay B), replicon 1B. Particulars: Hepatitis C virus, 72 h, replicon RNA by real-time PCR, incubated for 3 days. As to the method:
In an alternate assay (“Replicon Assay B”), 1000 cells were seeded per well in a 384-well collagen coated black plate from Greiner bio-one (Cat #781946) in 5% FBS. Inhibitors of this invention were added at 24 h post-seeding, and the plates were incubated for 3 days. Cells were subsequently lysed with Qiagen lysis buffer (Cat #1062731) to extract the RNA. HCV replicon RNA level was measured by real-time PCR using the RNA-to-CT kit from Applied Biosystem (Cat #4392656) and genotype-specific primers and probes. The amplicon was located within NSSB. The sequence of the PCR primers are as follows: 5B.2F, ATGGACAGGCGCCCTGA (SEQ. ID NO. 1); 5B.2R, […] (SEQ. ID NO. 2); the probe sequence was FAM-labeled CACGCCATGCGCTGCGG (SEQ. ID NO. 3). To detect genotype 1A the primer 1A F, TGCGGAACCGGTGAGTACA and 1A R, […] were used; the probe sequence was FAM-[…].
The real-time RT-PCR reactions were run on ABI PRISM 7900HT or Viia7 Sequence Detection System using the following program: 48° C. for 30 minutes, 95° C. for 10 minutes, 40 cycles of 95° C. for 15 sec, 60° C. for 1 minutes. The 50% effective concentration (EC50) was the drug concentration necessary to achieve an increase in the cycle threshold (CT) of 1 over the projected baseline CT.
(§1) Data was obtained for various compounds of the present invention using the methods described in the Example above, and is presented in the table immediately below. Data for replicons 1A, 1AY93H and 2B were obtained using Replicon Assay A and data for replicons 1B were obtained using Replicon Assay B.
For orientation: Replicon systems follow genome replication, usually without infectious particles.

Another assay deals with HCV replicon 1A. In words: Cell-based HCV replicon assay (Replicon Assay A), replicon 1A. Particulars: replicon RNA by real time PCR, cells harvested on day 3. As to the method:
(§2) To measure cell-based anti-HCV activity of compounds of the present invention, two complimentary assays were employed using various replicons. In the first assay (“Replicon Assay A”), replicon cells were seeded at 2000 cells/well in 384-well 384-well flat bottom tissue culture treated clear bottom plate (Corning 3707) in the presence of the test compound. Various concentrations of test compound, typically in 10 serial dilutions, were added to the assay mixture, with the starting concentration ranging from 333.3 nM to […]. The final concentration of DMSO was 0.5%. Fetal bovine serum was 5%, in the assay media. Cells were harvested on day 3 by removing media and washing the cells with a suitable wash buffer. The cells are lysed with the addition of 1× Qiagen lysis buffer (Cat #1062731). The replicon RNA level was measured using real time PCR (TaqMan® EZ RT-PCR, Applied Biosystems 403028) with the following primers and probes: […]
(§3) Cyclophilin RNA was used as endogenous control and was amplified in the same reaction as NS5B (multiplex PCR). The real-time RT-PCR reactions were run on ABI PRISM 7900HT Sequence Detection System using the following program: 50° C. for 2 minutes, 60° C. for 30 minutes, 95° C. for 5 minutes, 40 cycles of 94° C. for 20 sec, 55° C. for 1 minutes.
(§4) The amount of HCV replicon RNA per cell is quantified using a linear regression curve for a known nanogram (ng) amount of HCV replicon total RNA. This is established by plotting the Cycle Threshold values (Ct) from the Neo probe and primer set versus the log (ng) for each HCV replicon total RNA standard. The amount of HCV RNA for each replicon sample is calculated by taking the sample's Ct value, minus the line intercept, divided by the slope of the line. Similarly, the amount of Cyclophilin mRNA per cell is also quantified using a linear regression curve for a known nanogram (ng) amount of HCV replicon total RNA. Again, this is established by plotting the Cycle Threshold values (Ct) from the Cyclophilin probe and primer set versus the log (ng) for each HCV replicon total RNA standard.
as §1

The next assay concerns HCV replicon 2B. In words: Cell-based HCV replicon assay (Replicon Assay A), replicon 2B. The following applies: read-out: Replicon EC50 (nM) 2B, replicon 2B, replicon RNA by real time PCR, cells harvested on day 3. As to the method: as §2, §3, §4, §1
The next assay concerns HCV replicon 1A Y93H. The assay is described as follows: Cell-based HCV replicon assay (Replicon Assay A), replicon 1AY93H. Particulars: read-out: Replicon EC50 (nM) 1A Y93H, replicon 1A Y93H, replicon RNA by real time PCR, cells harvested on day 3. As to the method:
as §2, §3, §4, §1

Structures are written as SMILES. Where two headings read alike, the source gives them in different places.

Regarding `COC(=O)N[C@H](C(=O)N1CCC[C@H]1c1ncc(-c2cc(F)c3c(c2)OC(c2cc(C(C)C)no2)n2c-3cc3cc(-c4cnc([C@@H]5CCCN5C(=O)[C@@H](NC(=O)OC)C(C)C)[nH]4)ccc32)[nH]1)C(C)C` (mixture of isomers) [Compound 6], the EC50 in the assay on HCV replicon 1B was 0.0018 nM; with HCV replicon 1A (Hepatitis C virus, 72 h), 0.0017 nM; in the assay with HCV replicon 2B (Hepatitis C virus, 72 h), 0.36 nM; in the assay on HCV replicon 1A Y93H (Hepatitis C virus, 72 h) it was 0.088 nM.
Taken in the same sequence, the figures for `COC(=O)N[C@H](C(=O)N1CCC[C@H]1c1ncc(-c2cc(F)c3c(c2)OC(c2csnn2)n2c-3cc3cc(-c4cnc([C@@H]5CCCN5C(=O)[C@@H](NC(=O)OC)C(C)C)[nH]4)ccc32)[nH]1)C(C)C` (mixture of isomers) [Compound 37] were 0.0036 nM, 0.004 nM, 1.32 nM and 0.857 nM.
In the case of `COC(=O)N[C@H](C(=O)N1CCC[C@H]1c1ncc(-c2cc(F)c3c(c2)OC(c2nc4ccccc4o2)n2c-3cc3cc(-c4cnc([C@@H]5CCCN5C(=O)[C@@H](NC(=O)OC)C(C)C)[nH]4)ccc32)[nH]1)C(C)C` (single isomer, unassigned) [Compound 19], the EC50 came to 0.0016 nM in the assay on HCV replicon 1A (Hepatitis C virus, 72 h); 2.67 nM in the assay on HCV replicon 2B; 4.36 nM in the assay with HCV replicon 1A Y93H.
Take `COC(=O)N[C@H](C(=O)N1CCC[C@H]1c1ncc(-c2cc(F)c3c(c2)OC(c2nc4ccccc4o2)n2c-3cc3cc(-c4cnc([C@@H]5CCCN5C(=O)[C@@H](NC(=O)OC)C(C)C)[nH]4)ccc32)[nH]1)C(C)C` (single isomer, unassigned) [Compound 20]: the EC50 was 0.0026 nM in the assay on HCV replicon 1B, 0.0023 nM in the assay on HCV replicon 1A, 0.32 nM with HCV replicon 2B and 0.075 nM in the assay with HCV replicon 1A Y93H.
In the case of `COC(=O)N[C@H](C(=O)N1CCC[C@H]1c1ncc(-c2cc(F)c3c(c2)OC(c2nc(C)co2)n2c-3cc3cc(-c4cnc([C@@H]5CCCN5C(=O)[C@@H](NC(=O)OC)C(C)C)[nH]4)ccc32)[nH]1)C(C)C` (single isomer, unassigned) [Compound 23], the EC50 came out at 0.0031 nM with HCV replicon 1A (Hepatitis C virus, 72 h); 6.16 nM in the assay with HCV replicon 2B; 12.7 nM in the assay on HCV replicon 1A Y93H.
With `COC(=O)N[C@H](C(=O)N1CCC[C@H]1c1ncc(-c2cc(F)c3c(c2)OC(c2nc(C)co2)n2c-3cc3cc(-c4cnc([C@@H]5CCCN5C(=O)[C@@H](NC(=O)OC)C(C)C)[nH]4)ccc32)[nH]1)C(C)C` (single isomer, unassigned) [Compound 24], the concentration giving a half-maximal response (EC50) in the assay with HCV replicon 1A worked out at 0.0021 nM; in the assay on HCV replicon 2B, 2.62 nM; with HCV replicon 1A Y93H, 0.266 nM.
Turning to `CCc1cnc(C2Oc3cc(-c4cnc([C@@H]5CCCN5C(=O)[C@@H](NC(=O)OC)C(C)C)[nH]4)cc(F)c3-c3cc4cc(-c5cnc([C@@H]6CCCN6C(=O)[C@@H](NC(=O)OC)C(C)C)[nH]5)ccc4n32)o1` (single isomer, unassigned) [Compound 28], the EC50 stood at 0.0021 nM in the assay with HCV replicon 1A; 2.09 nM in the assay with HCV replicon 2B; 0.31 nM with HCV replicon 1A Y93H (Hepatitis C virus, 72 h).
Turning to `COC(=O)N[C@H](C(=O)N1CCC[C@H]1c1ncc(-c2cc(F)c3c(c2)OC(c2nc(C(C)C)ns2)n2c-3cc3cc(-c4cnc([C@@H]5CCCN5C(=O)[C@@H](NC(=O)OC)C(C)C)[nH]4)ccc32)[nH]1)C(C)C` (single isomer, unassigned) [Compound 31], the EC50 was determined as 0.0013 nM with HCV replicon 1A (Hepatitis C virus, 72 h); 1.64 nM with HCV replicon 2B (Hepatitis C virus, 72 h); 5.65 nM in the assay with HCV replicon 1A Y93H.
With `COC(=O)N[C@H](C(=O)N1CCC[C@H]1c1ncc(-c2cc(F)c3c(c2)OC(c2nc(C(C)C)ns2)n2c-3cc3cc(-c4cnc([C@@H]5CCCN5C(=O)[C@@H](NC(=O)OC)C(C)C)[nH]4)ccc32)[nH]1)C(C)C` (single isomer, unassigned) [Compound 32], the EC50 with HCV replicon 1A was found to be 0.0022 nM; in the assay on HCV replicon 2B it was 0.9 nM; in the assay with HCV replicon 1A Y93H it was 0.185 nM.
Take `CCc1nnc(C2Oc3cc(-c4cnc([C@@H]5CCCN5C(=O)[C@@H](NC(=O)OC)C(C)C)[nH]4)cc(F)c3-c3cc4cc(-c5cnc([C@@H]6CCCN6C(=O)C(NC(=O)OC)C(C)C)[nH]5)ccc4n32)s1` (single isomer, unassigned) [Compound 33]: the results for the EC50 in the assay on HCV replicon 1B and with HCV replicon 1A were 0.0026 nM and 0.0028 nM, respectively.
With `COC(=O)N[C@H](C(=O)N1CCC[C@H]1c1ncc(-c2cc(F)c3c(c2)OC(c2coc(C4CC4)n2)n2c-3cc3cc(-c4cnc([C@@H]5CCCN5C(=O)[C@@H](NC(=O)OC)C(C)C)[nH]4)ccc32)[nH]1)C(C)C` (single isomer, unassigned) [Compound 35], the half-maximal effective concentration (EC50) in the assay on HCV replicon 1B turned out to be 0.003 nM; with HCV replicon 1A (Hepatitis C virus, 72 h), 0.0034 nM.
As to `COC(=O)N[C@H](C(=O)N1CCC[C@H]1c1ncc(-c2cc(F)c3c(c2)OC(c2cc4ccccn4n2)n2c-3cc3cc(-c4cnc([C@@H]5CCCN5C(=O)[C@@H](NC(=O)OC)C(C)C)[nH]4)ccc32)[nH]1)C(C)C` (single isomer, unassigned) [Compound 39], the EC50 was found to be 0.0068 nM in the assay with HCV replicon 1A, 0.33 nM with HCV replicon 2B and 1.66 nM in the assay with HCV replicon 1A Y93H.
The like results for `COC(=O)N[C@H](C(=O)N1CCC[C@H]1c1ncc(-c2cc(F)c3c(c2)OC(c2cc4ccccn4n2)n2c-3cc3cc(-c4cnc([C@@H]5CCCN5C(=O)[C@@H](NC(=O)OC)C(C)C)[nH]4)ccc32)[nH]1)C(C)C` (single isomer, unassigned) [Compound 40] were, in that order, 0.0084 nM, 1.54 nM and 0.536 nM.
For `COC(=O)N[C@H](C(=O)N1CCC[C@H]1c1ncc(-c2cc(F)c3c(c2)OC(c2cc4ccccn4n2)n2c-3cc3cc(-c4cnc([C@@H]5CCCN5C(=O)[C@@H](NC(=O)OC)C(C)C)[nH]4)ccc32)[nH]1)C(C)C` (single isomer, unassigned) [Compound 41], the EC50 in the assay on HCV replicon 1A turned out to be 0.0019 nM; with HCV replicon 2B, 0.57 nM; in the assay with HCV replicon 1A Y93H, 0.317 nM.
As for `COC(=O)N[C@H](C(=O)N1CCC[C@H]1c1ncc(-c2cc(F)c3c(c2)OC(c2cn4ccccc4n2)n2c-3cc3cc(-c4cnc([C@@H]5CCCN5C(=O)[C@@H](NC(=O)OC)C(C)C)[nH]4)ccc32)[nH]1)C(C)C` (stereo partly drawn) [Compound 14], the half-maximal effective concentration (EC50) in the assay with HCV replicon 1B amounted to 0.0078 nM; in the assay on HCV replicon 1A (Hepatitis C virus, 72 h) it was 0.0057 nM.
For `COC(=O)N[C@H](C(=O)N1CCC[C@H]1c1ncc(-c2ccc3c(c2)OC(c2ccc(C)o2)n2c-3cc3cc(-c4cnc([C@@H]5CCCN5C(=O)[C@@H](NC(=O)OC)C(C)C)[nH]4)ccc32)[nH]1)C(C)C` (stereo partly drawn) [Compound 42], the EC50 is 0.0309 nM in the assay with HCV replicon 1A (Hepatitis C virus, 72 h); 6.16 nM with HCV replicon 2B (Hepatitis C virus, 72 h); 5.01 nM in the assay on HCV replicon 1A Y93H (Hepatitis C virus, 72 h).
Regarding `COC(=O)N[C@H](C(=O)N1CCC[C@H]1c1ncc(-c2ccc3c(c2)OC(c2ccc(C)o2)n2c-3cc3cc(-c4cnc([C@@H]5C[C@@H](F)CN5C(=O)[C@@H](NC(=O)OC)C(C)C)[nH]4)ccc32)[nH]1)C(C)C` (stereo partly drawn) [Compound 43], the EC50 with HCV replicon 1A (Hepatitis C virus, 72 h) turned out to be 0.0281 nM; in the assay on HCV replicon 2B (Hepatitis C virus, 72 h), 0.06 nM; in the assay with HCV replicon 1A Y93H (Hepatitis C virus, 72 h) it was 1.02 nM.
